Assay results taken from US5830855A, “Lipodepsipeptides as antifungal and fungicidal agents” (priority 1996, dated 1998).
Values after ≈ are worked out from the molar mass of the structure shown. Numbered stars: 1 amine (or outer) side, 2 acyl side, 3 side chain; on linkers, the order of the positions; unused ones are H or OH. Bridge positions count the residues as written; N and C are the ends. Square brackets hold non-standard residues; d marks the D form. Peptide text beside a SMILES is read from it. * marks the point of attachment. ξ: configuration not given here. ξAsp(3ξ-OH) = NC(C(=O)O)C(O)C(=O)O; X3 = O=C(C(N[*:1])C(O)CCl)[*:2]; X2 = CCCCCCCCCCCC(O)CC(=O)*; Orn = NCCC[CH](N)C(=O)O; hSer = N[CH](CCO)C(=O)O; Dab = NCC[CH](N)C(=O)O; Dhb = C/C=C(\N)C(=O)O

What was measured:
Type in all cases: cell-based
Aspergillus fumigatus [1] = assay: Broth microdilution MIC; conditions: Table 1 (MICs), 16 isolates, 48 hr
Protocol: (§1) Medium: Liquid RPMI 1640 (RPMI) medium with L-glutamine and without sodium bicarbonate (Sigma Chemical Co., R-6504; St. Louis, Mo.) buffered with 0.165M MOPS (34.54 g/liter) was used for in vitro antifungal tests. The medium was adjusted to pH 7.0 with 10M NaOH and filter sterilized.
(§2) Lipodepsipeptide Dilutions: All stock drug solution concentrations were at least 10-fold higher than the highest concentration tested. AmB, ketoconazole, and the test compounds (SR-E, ST-B, and SS-A) were dissolved in sterile distilled water, 0.2N HCl, and 0.001N HCl, respectively. Each stock solution was diluted to 2× the highest concentration of drug tested with RPMI. Two-fold dilutions were made with RPMI medium.
(§3) Preparation of Inoculum Suspensions: On Sabouraud dextose agar (SDA; BBL, Becton and Dickinson and Co., Cockeysville, Md.) all isolates were subcultured at least twice before use to ensure purity and viability. Candida spp. and Saccharomyces cerevisiae were grown for 24 hr at 35° C. Isolates of Cryptococcus neoformans were grown for 48 hr at 35° C. Yeast cells from at least five 1-mm-diameter colonies were suspended in 5 ml of sterile 0.85% saline. The resulting suspension was vortexed for 15 sec. The turbidity of each mixed suspension was measured at 530 nm and adjusted to 1×10^6 to 5×10^6 CFU/ml by the NCCLS spectrophotometric method described by National Committee for Clinical Laboratory Standards. 1992. Reference method for broth dilution antifungal susceptibility testing of yeasts; proposed standard, NCCLS document M27-P (ISBN 1-56238-186-5). NCCLS, Villanova. The final transmission of each yeast suspension ranged from 85-87%.
(§4) Aspergillus fumigatus and Mucor spp. were grown for 1 wk at 35° C. The dermatophytes, Microsporum spp. and Trichophyton spp., were grown for two wk at 30° C. Fungal spores were washed from the plates of all good spore formers (A. fumigatus, Mucor spp., Microsporum canis and Trichophyton spp.) by placing 5 ml of 0.85% saline with 0.2% Tween 80 on the plates and mixing with an inoculating loop. The spore/mycelium suspension was drawn off with a pipette and allowed to settle for at least 5 min. For the poor spore-forming Microsporum audouinii, the procedure was the same except the spore/mycelial suspension was homogenized with a ground glass tissue homogenizer and then allowed to settle for at least 5 min. A small amount of the supernatant was transferred to 5 ml of sterile saline and vortexed. The stock suspensions of all filamentous fungi were measured at 530 nm and adjusted to 85-87% transmission. The concentration (1×10^6 to 5×10^6 CFU/ml) was determined by hemacytometer count or plate count on SDA. All stock suspensions were diluted 1000-fold with RPMI, or 2× the final desired test inocula. The 2× inoculum was diluted 1:1 when the wells were inoculated, and the desired inoculum size was achieved.
(§5) Broth Microdilution Test: Broth microdilution tests were performed using sterile, disposable, multiwell microdilution plates (96 round U-bottom wells) (Falcon 3077; Becton and Dickinson Labware, Lincoln Park, N.J.). The drugs (2× concentrations) were dispensed into the wells of rows number 1 to 10 of the microdilution plates in 100 μl volumes from highest drug concentration to lowest drug concentration. Each well was inoculated with 100 μl of the corresponding 2× concentrated fungal suspension. The wells of row 11 contained the inoculum with drug-free media as a positive growth control and the wells of row 12 contained uninoculated-drug-free medium as a sterility control.
(§6) Incubation and Scoring of MIC: All cultures were incubated without shaking at the temperature used during subculture. Incubation times were 48 hr for Candida spp., S. cerevisiae, A. fumigatus, and Mucor spp; 72 hr for C. neoformans; and 7 days for Microsporum and Trichophyton spp. […]

Candida albicans [2] = assay: Broth microdilution MIC; conditions: Table 1 (MICs); Candida albicans, 20 isolates; RPMI pH 7.0, 48 hr; Ktz read at score 2, others at score 0
Protocol: as §1, §2, §3, §4, §5, §6

Candida kefyr [3] = assay: Broth microdilution MIC; conditions: Table 1 (MICs), 1 isolate, 48 hr
Protocol: as §1, §2, §3, §4, §5, §6

Candida krusei [4] = assay: Broth microdilution MIC; conditions: Table 1 (MICs), 2 isolates, 48 hr
Protocol: as §1, §2, §3, §4, §5, §6

Candida lusitaniae [5] = assay: Broth microdilution MIC; conditions: Table 1 (MICs), 2 isolates, 48 hr
Protocol: as §1, §2, §3, §4, §5, §6

Candida parapsilosis [6] = assay: Broth microdilution MIC; conditions: Table 1 (MICs), 2 isolates, 48 hr
Protocol: as §1, §2, §3, §4, §5, §6

Candida rugosa = assay: Broth microdilution MIC; conditions: Table 1 (MICs); Candida rugosa, 2 isolates; 48 hr
Protocol: as §1, §2, §3, §4, §5, §6

Candida tropicalis [7] = assay: Broth microdilution MIC; conditions: Table 1 (MICs); Candida tropicalis, 2 isolates; 48 hr
Protocol: as §1, §2, §3, §4, §5, §6

Cryptococcus neoformans [8] = assay: Broth microdilution MIC; conditions: Table 1 (MICs); Cryptococcus neoformans, 14 isolates; 72 hr
Protocol: as §1, §2, §3, §4, §5, §6

Microsporum spp. [9] = assay: Broth microdilution MIC; conditions: Table 1 (MICs), 2 isolates, 7 days
Protocol: as §1, §2, §3, §4, §5, §6

Saccharomyces cerevisiae [10] = assay: Broth microdilution MIC; conditions: Table 1 (MICs), 1 strain tested more than once (control ATCC 36375), 48 hr
Protocol: as §1, §2, §3, §4, §5, §6

Trichophyton spp. [11] = assay: Broth microdilution MIC; conditions: Table 1 (MICs), 3 isolates, 7 days
Protocol: as §1, §2, §3, §4, §5, §6

Aspergillus fumigatus [12] = assay: Minimum Fungicidal Concentration (MFC); conditions: Table 2, 16 isolates, 48 hr
Protocol: as §1, §2, §3, §4, §5, §6

Candida albicans [13] = assay: Minimum Fungicidal Concentration (MFC); conditions: Table 2, 20 isolates, subculture on drug-free SDA 24 hr
Protocol: as §1, §2, §3, §4, §5, §6

Candida kefyr [14] = assay: Minimum Fungicidal Concentration (MFC); conditions: Table 2, 1 isolate, 24 hr
Protocol: as §1, §2, §3, §4, §5, §6

Candida krusei [15] = assay: Minimum Fungicidal Concentration (MFC); conditions: Table 2, 2 isolates, 24 hr
Protocol: as §1, §2, §3, §4, §5, §6

Candida lusitaniae [16] = assay: Minimum Fungicidal Concentration (MFC); conditions: Table 2, 2 isolates, 24 hr
Protocol: as §1, §2, §3, §4, §5, §6

Candida parapsilosis [17] = assay: Minimum Fungicidal Concentration (MFC); conditions: Table 2, 2 isolates, 24 hr
Protocol: as §1, §2, §3, §4, §5, §6

Candida tropicalis [18] = assay: Minimum Fungicidal Concentration (MFC); conditions: Table 2, 2 isolates, 24 hr
Protocol: as §1, §2, §3, §4, §5, §6

Cryptococcus neoformans [19] = assay: Minimum Fungicidal Concentration (MFC); conditions: Table 2, 14 isolates, 48 hr
Protocol: as §1, §2, §3, §4, §5, §6

Microsporum spp. [20] = assay: Minimum Fungicidal Concentration (MFC); conditions: Table 2, 2 isolates, 7 d
Protocol: as §1, §2, §3, §4, §5, §6

Saccharomyces cerevisiae [21] = assay: Minimum Fungicidal Concentration (MFC); conditions: Table 2, 1 strain tested more than once, 24 hr
Protocol: as §1, §2, §3, §4, §5, §6

Trichophyton spp. [22] = assay: Minimum Fungicidal Concentration (MFC); conditions: Table 2, 3 isolates, 7 d
Protocol: as §1, §2, §3, §4, §5, §6

For C/C=C1\NC(=O)C(C(C)O)NC(=O)C(CCCN)NC(=O)C(CCO)NC(=O)C(CCN)NC(=O)C(CCN)NC(=O)C(NC(=O)CC(O)CCCCCCCCCCC)COC(=O)C(C(O)CCl)NC(=O)C(C(O)C(=O)O)NC1=O (centres unmarked) [SS-A, syringostatin-A] (X2-S[Dab][Dab][hSer][Orn]T[Dhb][ξAsp(3ξ-OH)][X3]; ester 1-C; configuration not given here), the MIC range (Aspergillus fumigatus [1]) was 5 to 40 µg/mL, the MIC range (Candida albicans [2]) was 2.5 to 5 µg/mL and the “MIC (μg/ml) range” value (Candida kefyr [3]) was 2.5 µg/mL (≈ 2.12 µM). The “MIC (μg/ml) range” value (Candida krusei [4]) was 10 µg/mL (≈ 8.48 µM), the MIC range (Candida lusitaniae [5]) was 5 µg/mL (≈ 4.24 µM) and the MIC range (Candida parapsilosis [6]) was 2.5 to 5 µg/mL. For the same molecule, the MIC range (Candida rugosa) was 10 to 20 µg/mL, the “MIC (μg/ml) range” value (Candida tropicalis [7]) was 2.5 to 5 µg/mL and the MIC range (Cryptococcus neoformans [8]) was 2.5 to 10 µg/mL. The MIC range (Microsporum spp. [9]) was 2.5 to 5 µg/mL, the “MFC (μg/ml) range” value (Saccharomyces cerevisiae [10]) was 2.5 µg/mL (≈ 2.12 µM) and the MIC range (Trichophyton spp. [11]) was 2.5 to 5 µg/mL. For the same molecule, the “MFC (μg/ml) range” value (Aspergillus fumigatus [12]) was 5 to 40 µg/mL, the “MFC (μg/ml) range” value (Candida albicans [13]) was 2.5 to 10 µg/mL and the “MFC (μg/ml) range” value (Candida kefyr [14]) was 2.5 µg/mL (≈ 2.12 µM). For the same molecule, the “MFC (μg/ml) range” value (Candida krusei [15]) was 10 to 20 µg/mL, the “MFC (μg/ml) range” value (Candida lusitaniae [16]) was 5 µg/mL (≈ 4.24 µM) and the “MFC (μg/ml) range” value (Candida parapsilosis [17]) was 2.5 to 10 µg/mL. The “MFC (μg/ml) range” value (Candida tropicalis [18]) was 5 µg/mL (≈ 4.24 µM), the “MFC (μg/ml) range” value (Cryptococcus neoformans [19]) was 2.5 to 10 µg/mL and the “MFC (μg/ml) range” value (Microsporum spp. [20]) was 5 µg/mL (≈ 4.24 µM). The “MFC (μg/ml) range” value (Saccharomyces cerevisiae [21]) was 5 µg/mL (≈ 4.24 µM) and the “MFC (μg/ml) range” value (Trichophyton spp. [22]) was 5 µg/mL (≈ 4.24 µM).
